Measured values published in US20220323406A1, “METHODS AND COMPOSITIONS FOR DIFFERENTIATING STEM CELLS” (Massachusetts Institute of Technology, priority 2019, published 2022).
Where a name gives a salt, the structure may show the parent alone.

Experiments:
[1] = test system: ENR+CD organoids (ISC to Paneth cell differentiation); assay: Primary screen: basal (non-stimulated) lysozyme secretion LYZ.NS, 2.5-D 384-well ENR+CD organoid differentiation; type: cell-based, mouse
Excerpt: (§1) High-throughput screening.

[2] = test system: ENR+CD organoids (ISC to Paneth cell differentiation); assay: Primary screen: CCh-stimulated lysozyme secretion LYZ.S, 2.5-D 384-well ENR+CD organoid differentiation; type: cell-based, mouse; settings: primary screen
Excerpt: as §1

ENR+CD organoids = assay: Primary screen: ATP (CellTiter-Glo 3D, CTG) cell number/viability, 2.5-D 384-well ENR+CD organoids;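 also: compounds given at plating and again on day 3 over a 6-day differentiation from ENR+CV stem-cell-enriched precursors, ATP measured on day 6, plate median as control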
[3] = primary screen, standard z score, dose 0.08 uM
[4] = primary screen, standard z score, dose 0.40 uM
[5] = primary screen, standard z score, dose 2.00 uM
[6] = primary screen, standard z score, dose 10.00 uM
[7] = primary screen, dose 0.08 uM, standard z score
[8] = primary screen, dose 0.40 uM, standard z score
[9] = primary screen, dose 2.00 uM, standard z score
[10] = primary screen, dose 10.00 uM, standard z score
[11] = primary screen; dose 0.08 uM; FC vs plate median
[12] = primary screen; dose 0.40 uM; FC vs plate median
[13] = primary screen; dose 2.00 uM; FC vs plate median
[14] = primary screen; dose 10.00 uM; FC vs plate median
[15] = primary screen, dose 0.08 uM, FC relative to plate median
[16] = primary screen, dose 0.40 uM, FC relative to plate median
[17] = primary screen, dose 2.00 uM, FC relative to plate median
[18] = primary screen, dose 10.00 uM, FC relative to plate median

Molecule	Z.LYZ.NS (standard z score) ([1]; primary screen, dose 0.08 uM)	Z.LYZ.NS (standard z score) ([1]; primary screen, dose 0.40 uM)	Z.LYZ.NS (standard z score) ([1]; primary screen, dose 2.00 uM)	Z.LYZ.NS (standard z score) ([1]; primary screen, dose 10.00 uM)	Z.CTG (standard z score) (ENR+CD organoids; primary screen, dose 0.08 uM)	Z.CTG (standard z score) (ENR+CD organoids; primary screen, dose 0.40 uM)	Z.CTG (standard z score) (ENR+CD organoids; primary screen, dose 2.00 uM)	Z.CTG (standard z score) (ENR+CD organoids; primary screen, dose 10.00 uM)	Dose.FC.LYZ.NS ([1]; primary screen, dose 0.08 uM)	Dose.FC.LYZ.NS ([1]; primary screen, dose 0.40 uM)	Dose.FC.LYZ.NS ([1]; primary screen, dose 2.00 uM)	Dose.FC.LYZ.NS ([1]; primary screen, dose 10.00 uM)	Dose.FC.LYZ.S ([2]; dose 0.08 uM)	Dose.FC.LYZ.S ([2]; dose 0.40 uM)	Dose.FC.LYZ.S ([2]; dose 2.00 uM)	Dose.FC.LYZ.S ([2]; dose 10.00 uM)	Dose.FC.CTG (ENR+CD organoids; primary screen, dose 0.08 uM)	Dose.FC.CTG (ENR+CD organoids; primary screen, dose 0.40 uM)	Dose.FC.CTG (ENR+CD organoids; primary screen, dose 2.00 uM)	Dose.FC.CTG (ENR+CD organoids; primary screen, dose 10.00 uM)	other results
Cc1cccc(-c2nn3c(c2-c2ccnc4ccc(C(N)=O)cc24)CCC3)n1 [LY2157299]	1.973	1.221	0.799	1.408	0.218	0.328	0.041	0.226													Dose.FC.LYZ.NS (log2 fold change) ([1]; primary screen, dose 0.08 uM): 0.227; Dose.FC.LYZ.NS (log2 fold change) ([1]; primary screen, dose 0.40 uM): 0.140; Dose.FC.LYZ.NS (log2 fold change) ([1]; primary screen, dose 2.00 uM): 0.092; Dose.FC.LYZ.NS (log2 fold change) ([1]; primary screen, dose 10.00 uM): 0.162; Dose.FC.LYZ.S (log2 fold change) ([2]; dose 0.08 uM): 0.187; Dose.FC.LYZ.S (log2 fold change) ([2]; dose 0.40 uM): 0.199; Dose.FC.LYZ.S (log2 fold change) ([2]; dose 2.00 uM): 0.113; Dose.FC.LYZ.S (log2 fold change) ([2]; dose 10.00 uM): 0.223; Dose.FC.CTG (log2 fold change) (ENR+CD organoids; primary screen, dose 0.08 uM): 0.091; Dose.FC.CTG (log2 fold change) (ENR+CD organoids; primary screen, dose 0.40 uM): 0.137; Dose.FC.CTG (log2 fold change) (ENR+CD organoids; primary screen, dose 2.00 uM): 0.017; Dose.FC.CTG (log2 fold change) (ENR+CD organoids; primary screen, dose 10.00 uM): 0.095
COCC[n+]1c2c(n(Cc3cnccn3)c1C)C(=O)c1ccccc1C2=O.[Br-] [YM155 (Sepantronium Bromide)]	0.995	−0.266	−0.714	−0.839	0.531	−0.198	−1.100	−2.316	0.114 log2 fold change	−0.031 log2 fold change	−0.082 log2 fold change	−0.096 log2 fold change	0.172 log2 fold change	−0.039 log2 fold change	−0.137 log2 fold change	−0.210 log2 fold change	0.222 log2 fold change	−0.083 log2 fold change	−0.460 log2 fold change	−0.970 log2 fold change	
O=c1[nH]c2ccc(Cl)cc2c(N[C@@H]2CN3CCC2CC3)c1-c1nc2ccccc2[nH]1 [CHIR-124]									−0.155 log2 fold change	−0.240 log2 fold change	−0.220 log2 fold change	−0.140 log2 fold change	−0.267 log2 fold change	−0.339 log2 fold change	−0.352 log2 fold change	−0.332 log2 fold change	−0.256 log2 fold change	−0.853 log2 fold change	−0.861 log2 fold change	−1.555 log2 fold change	Z.LYZ.NS [1, 3]: −1.352; Z.LYZ.NS [1, 4]: −2.090; Z.LYZ.NS [1, 5]: −1.916; Z.LYZ.NS [1, 6]: −1.223; Z.CTG (ENR+CD organoids; [3]): −0.612; Z.CTG (ENR+CD organoids; [4]): −2.038; Z.CTG (ENR+CD organoids; [5]): −2.057; Z.CTG (ENR+CD organoids; [6]): −3.714
CC(C)NCC(O)COc1ccc(COCCOC(C)C)cc1 (stereo not shown) [Bisoprolol fumarate]	0.739	0.649	0.656	0.027					0.085 log2 fold change	0.075 log2 fold change	0.075 log2 fold change	0.003 log2 fold change	0.086 log2 fold change	0.129 log2 fold change	0.074 log2 fold change	0.015 log2 fold change	−0.104 log2 fold change	−0.057 log2 fold change	−0.020 log2 fold change	0.058 log2 fold change	
CC(C)(Cc1ccc2ccccc2c1)NC[C@@H](O)COc1cccc(Cl)c1C#N [NPS-2143]																					Z.LYZ.NS [1, 7]: 1.413; Z.LYZ.NS [1, 8]: −0.416; Z.LYZ.NS [1, 9]: −0.674; Z.LYZ.NS [1, 10]: −0.597; Dose.FC.LYZ.NS [1, 11]: 0.162 log2 fold change; Dose.FC.LYZ.NS [1, 12]: −0.048 log2 fold change; Dose.FC.LYZ.NS [1, 13]: −0.077 log2 fold change; Dose.FC.LYZ.NS [1, 14]: −0.069 log2 fold change; Dose.FC.LYZ.S ([2]; dose 0.08 uM, FC vs plate median): 0.147 log2 fold change; Dose.FC.LYZ.S ([2]; dose 0.40 uM, FC vs plate median): −0.062 log2 fold change; Dose.FC.LYZ.S ([2]; dose 2.00 uM, FC vs plate median): −0.161 log2 fold change; Dose.FC.LYZ.S ([2]; dose 10.00 uM, FC vs plate median): −0.116 log2 fold change; Z.CTG (ENR+CD organoids; [7]): 0.356; Z.CTG (ENR+CD organoids; [8]): −0.466; Z.CTG (ENR+CD organoids; [9]): −0.587; Z.CTG (ENR+CD organoids; [10]): −0.282; Dose.FC.CTG (ENR+CD organoids; [11]): 0.149 log2 fold change; Dose.FC.CTG (ENR+CD organoids; [12]): −0.195 log2 fold change; Dose.FC.CTG (ENR+CD organoids; [13]): −0.246 log2 fold change; Dose.FC.CTG (ENR+CD organoids; [14]): −0.118 log2 fold change
CCn1c(N)c(C(=O)NC)c(=O)c2ccc(C#C[C@@](C)(O)COC)nc21 [SAR131675]																					Dose.FC.LYZ.NS [1, 15]: 0.055 log2 fold change; Z.LYZ.NS [1, 7]: 0.483; Dose.FC.LYZ.NS [1, 16]: 0.089 log2 fold change; Z.LYZ.NS [1, 8]: 0.774; Dose.FC.LYZ.NS [1, 17]: 0.021 log2 fold change; Z.LYZ.NS [1, 9]: 0.181; Dose.FC.LYZ.NS [1, 18]: −0.088 log2 fold change; Z.LYZ.NS [1, 10]: −0.766; Dose.FC.LYZ.S ([2]; dose 0.08 uM, FC relative to plate median): 0.148 log2 fold change; Dose.FC.LYZ.S ([2]; dose 0.40 uM, FC relative to plate median): 0.096 log2 fold change; Dose.FC.LYZ.S ([2]; dose 2.00 uM, FC relative to plate median): 0.026 log2 fold change; Dose.FC.LYZ.S ([2]; dose 10.00 uM, FC relative to plate median): 0.000 log2 fold change; Dose.FC.CTG (ENR+CD organoids; [15]): 0.175 log2 fold change; Z.CTG (ENR+CD organoids; [7]): 0.419; Dose.FC.CTG (ENR+CD organoids; [16]): −0.084 log2 fold change; Z.CTG (ENR+CD organoids; [8]): −0.201; Dose.FC.CTG (ENR+CD organoids; [17]): 0.071 log2 fold change; Z.CTG (ENR+CD organoids; [9]): 0.169; Dose.FC.CTG (ENR+CD organoids; [18]): 0.062 log2 fold change; Z.CTG (ENR+CD organoids; [10]): 0.149
CC(C)CCNC(=O)[C@H](CC(C)C)NC(=O)[C@H]1O[C@@H]1C(=O)O [Loxistatin Acid (E-64C)]	1.283	0.534	0.482	0.031	0.206	0.373	0.191	0.224													Dose.FC.LYZ.NS (log2 fold change) ([1]; primary screen, dose 0.08 uM): 0.147; Dose.FC.LYZ.NS (log2 fold change) ([1]; primary screen, dose 0.40 uM): 0.061; Dose.FC.LYZ.NS (log2 fold change) ([1]; primary screen, dose 2.00 uM): 0.055; Dose.FC.LYZ.NS (log2 fold change) ([1]; primary screen, dose 10.00 uM): 0.004; Dose.FC.LYZ.S (log2 fold change) ([2]; dose 0.08 uM): 0.125; Dose.FC.LYZ.S (log2 fold change) ([2]; dose 0.40 uM): 0.105; Dose.FC.LYZ.S (log2 fold change) ([2]; dose 2.00 uM): 0.037; Dose.FC.LYZ.S (log2 fold change) ([2]; dose 10.00 uM): 0.021; Dose.FC.CTG (log2 fold change) (ENR+CD organoids; primary screen, dose 0.08 uM): 0.086; Dose.FC.CTG (log2 fold change) (ENR+CD organoids; primary screen, dose 0.40 uM): 0.156; Dose.FC.CTG (log2 fold change) (ENR+CD organoids; primary screen, dose 2.00 uM): 0.080; Dose.FC.CTG (log2 fold change) (ENR+CD organoids; primary screen, dose 10.00 uM): 0.094
c1cc(-c2cnn3cc(-c4ccc(N5CCNCC5)cc4)cnc23)c2cccnc2c1 [LDN-212854]	0.823	0.446	−1.885	−2.375	0.568	0.309	−1.134	−3.018													Dose.FC.LYZ.NS (log2 fold change) ([1]; primary screen, dose 0.08 uM): 0.095; Dose.FC.LYZ.NS (log2 fold change) ([1]; primary screen, dose 0.40 uM): 0.051; Dose.FC.LYZ.NS (log2 fold change) ([1]; primary screen, dose 2.00 uM): −0.217; Dose.FC.LYZ.NS (log2 fold change) ([1]; primary screen, dose 10.00 uM): −0.273; Dose.FC.LYZ.S (log2 fold change) ([2]; dose 0.08 uM): 0.162; Dose.FC.LYZ.S (log2 fold change) ([2]; dose 0.40 uM): 0.026; Dose.FC.LYZ.S (log2 fold change) ([2]; dose 2.00 uM): −0.292; Dose.FC.LYZ.S (log2 fold change) ([2]; dose 10.00 uM): −0.399; Dose.FC.CTG (log2 fold change) (ENR+CD organoids; primary screen, dose 0.08 uM): 0.238; Dose.FC.CTG (log2 fold change) (ENR+CD organoids; primary screen, dose 0.40 uM): 0.129; Dose.FC.CTG (log2 fold change) (ENR+CD organoids; primary screen, dose 2.00 uM): −0.475; Dose.FC.CTG (log2 fold change) (ENR+CD organoids; primary screen, dose 10.00 uM): −1.263
VU 0364770	1.350	0.736	1.020	0.884	0.031	0.204	0.199	−0.246	0.155 log2 fold change	0.085 log2 fold change	0.117 log2 fold change	0.102 log2 fold change	0.082 log2 fold change	0.125 log2 fold change	0.139 log2 fold change	0.066 log2 fold change	0.013 log2 fold change	0.085 log2 fold change	0.083 log2 fold change	−0.103 log2 fold change	
Nc1cccc(-c2cc3c(Oc4cccc(O)c4)ncnc3[nH]2)c1 [TWS119]	0.820	0.327	0.304	−2.027	0.784	0.796	0.169	−2.866	0.094 log2 fold change	0.038 log2 fold change	0.035 log2 fold change	−0.233 log2 fold change	0.207 log2 fold change	0.142 log2 fold change	0.044 log2 fold change	−0.283 log2 fold change	0.328 log2 fold change	0.333 log2 fold change	0.071 log2 fold change	−1.200 log2 fold change	
